Experiments:
Assay in all cases: ATP level assay (CellTiter-Glo), percent of control
Format in all cases: cell-based
[1] = system: BxPC3 (pancreatic cancer); conditions: two hour incubation; for activity at 100 µM: Homo sapiens, BXPC-3, 2 h, compound alone, control DMSO, read-out: POC (percent of control) BxPC3
H293 (kidney cancer) = conditions: two hour incubation; for activity at 100 µM: 2 h, compound alone, control DMSO, read-out: POC (percent of control) H293
HDF (normal cells) = conditions: two hour incubation; for activity at 100 µM: 2 h, compound alone, control DMSO, read-out: POC (percent of control) HDF
HeLa (cervical cancer) = conditions: two hour incubation; for activity at 100 µM: Homo sapiens, HeLa, 2 h, compound alone, control DMSO, read-out: POC (percent of control) HeLa
[2] = system: MCF10A (non-cancerous breast); conditions: two hour incubation; for activity at 100 µM: Homo sapiens, MCF-10A, 2 h, compound alone, control DMSO, read-out: POC (percent of control) MCF10A
MCF7 (breast cancer) = conditions: two hour incubation; for activity at 100 µM: Homo sapiens, MCF7, 2 h, compound alone, control DMSO, read-out: POC (percent of control) MCF7
MDA-MB (breast cancer) = conditions: two hour incubation; for activity at 100 µM: 2 h, compound alone, control DMSO, read-out: POC (percent of control) MDA-MB
NCI-H196 (lung cancer) = conditions: two hour incubation; for activity at 100 µM: NCI-H196, 2 h, compound alone, control DMSO, read-out: POC (percent of control) NCI-H196
PC3 (prostate cancer) = conditions: two hour incubation; for activity at 100 µM: 2 h, compound alone, control DMSO, read-out: POC (percent of control) PC3
SkBr3 (breast cancer) = conditions: two hour incubation; for activity at 100 µM: Homo sapiens, SK-BR-3, 2 h, compound alone, control DMSO, read-out: POC (percent of control) SkBr3
T47D (breast cancer) = conditions: two hour incubation; for activity at 100 µM: Homo sapiens, T47D, 2 h, compound alone, control DMSO, read-out: POC (percent of control) T47D
[3] = compound 100 uM + 2DG (about 10-20 mM)
[4] = compound 100 uM + rotenone (approximately 1.25 μM)

| Structure (SMILES) | activity at 100 µM [1] [%] | POC (percent of control) BxPC3 [1, 3] | POC (percent of control) BxPC3 [1, 4] | activity at 100 µM (H293 (kidney cancer)) [%] | POC (percent of control) H293 (H293 (kidney cancer); [3]) | POC (percent of control) H293 (H293 (kidney cancer); [4]) | activity at 100 µM (HDF (normal cells)) [%] | POC (percent of control) HDF (HDF (normal cells); [3]) | POC (percent of control) HDF (HDF (normal cells); [4]) | activity at 100 µM (HeLa (cervical cancer)) [%] | POC (percent of control) HeLa (HeLa (cervical cancer); [3]) | POC (percent of control) HeLa (HeLa (cervical cancer); [4]) | activity at 100 µM [2] [%] | POC (percent of control) MCF10A [2, 3] | POC (percent of control) MCF10A [2, 4] | activity at 100 µM (MCF7 (breast cancer)) [%] | POC (percent of control) MCF7 (MCF7 (breast cancer); [3]) | POC (percent of control) MCF7 (MCF7 (breast cancer); [4]) | activity at 100 µM (MDA-MB (breast cancer)) [%] | POC (percent of control) MDA-MB (MDA-MB (breast cancer); [3]) | further results |
| --- | --- | --- | --- | --- | --- | --- | --- | --- | --- | --- | --- | --- | --- | --- | --- | --- | --- | --- | --- | --- | --- |
| O=S(=O)(NCc1c[nH]c2ccccc12)c1ccc(C(F)(F)F)cc1 [Compound 24, N-(1H-indol-3-ylmethyl)-4-(trifluoromethyl)benzenesulfonamide] | 59 | 43.1% of control | 38.6% of control | 62.6 | 42.1% of control | 47.6% of control | 57.2 | 65.6% of control | 95.7% of control | 78.9 | 80.4% of control | 96.1% of control | 85.1 | 56.8% of control | 59.1% of control | 82.9 | 55.7% of control | 66.5% of control | 96.4 | 41.5% of control | POC (percent of control) MDA-MB (MDA-MB (breast cancer); [4]): 49.7% of control; activity at 100 µM (NCI-H196 (lung cancer)): 172%; POC (percent of control) NCI-H196 (NCI-H196 (lung cancer); [3]): 54.6% of control; POC (percent of control) NCI-H196 (NCI-H196 (lung cancer); [4]): 73.3% of control; activity at 100 µM (PC3 (prostate cancer)): 54.6%; POC (percent of control) PC3 (PC3 (prostate cancer); [3]): 52.5% of control; POC (percent of control) PC3 (PC3 (prostate cancer); [4]): 47.5% of control; activity at 100 µM (SkBr3 (breast cancer)): 93.4%; POC (percent of control) SkBr3 (SkBr3 (breast cancer); [3]): 66.5% of control; POC (percent of control) SkBr3 (SkBr3 (breast cancer); [4]): 67.2% of control; activity at 100 µM (T47D (breast cancer)): 70.6%; POC (percent of control) T47D (T47D (breast cancer); [3]): 49.7% of control; POC (percent of control) T47D (T47D (breast cancer); [4]): 65.5% of control |
| O=S(=O)(NCc1cncnc1)c1ccc(Cl)cc1 [Compound 14, 4-chloro-N-(pyrimidin-5-ylmethyl)benzenesulfonamide] | 93.8 | 95.4% of control | 60.9% of control | 84.9 | 82.1% of control | 82.4% of control | 96.1 | 96.3% of control | 90.9% of control | 98.3 | 106.4% of control | 102.1% of control | 103 | 119.1% of control | 94.3% of control | 126 | 109.8% of control | 94.4% of control | 105 | 86% of control | POC (percent of control) MDA-MB (MDA-MB (breast cancer); [4]): 87.5% of control; activity at 100 µM (NCI-H196 (lung cancer)): 86.9%; POC (percent of control) NCI-H196 (NCI-H196 (lung cancer); [3]): 107.3% of control; POC (percent of control) NCI-H196 (NCI-H196 (lung cancer); [4]): 109% of control; activity at 100 µM (PC3 (prostate cancer)): 111%; POC (percent of control) PC3 (PC3 (prostate cancer); [3]): 101.7% of control; POC (percent of control) PC3 (PC3 (prostate cancer); [4]): 101.7% of control; activity at 100 µM (SkBr3 (breast cancer)): 107%; POC (percent of control) SkBr3 (SkBr3 (breast cancer); [3]): 96.9% of control; POC (percent of control) SkBr3 (SkBr3 (breast cancer); [4]): 98.3% of control; activity at 100 µM (T47D (breast cancer)): 86.7%; POC (percent of control) T47D (T47D (breast cancer); [3]): 106.4% of control; POC (percent of control) T47D (T47D (breast cancer); [4]): 114.8% of control |
| O=S(=O)(NCc1c[nH]c2cccc(Br)c12)c1ccc(Cl)cc1 [Compound 27, N-[(4-bromo-1H-indol-3-yl)methyl]-4-chlorobenzenesulfonamide] | 42.8 | 14.2% of control | 15.8% of control | 67 | 30.4% of control | 27.3% of control | 65 | 38% of control | 66.6% of control | 58.3 | 104.3% of control | 73.3% of control | 58.9 | 27.1% of control | 30.2% of control | 82.9 | 50.2% of control | 61.1% of control | 62.6 | 27.3% of control | POC (percent of control) MDA-MB (MDA-MB (breast cancer); [4]): 37.3% of control; activity at 100 µM (NCI-H196 (lung cancer)): 150%; POC (percent of control) NCI-H196 (NCI-H196 (lung cancer); [3]): 117.2% of control; POC (percent of control) NCI-H196 (NCI-H196 (lung cancer); [4]): 16.7% of control; activity at 100 µM (PC3 (prostate cancer)): 43.1%; POC (percent of control) PC3 (PC3 (prostate cancer); [3]): 15.2% of control; POC (percent of control) PC3 (PC3 (prostate cancer); [4]): 27.2% of control; activity at 100 µM (SkBr3 (breast cancer)): 95.6%; POC (percent of control) SkBr3 (SkBr3 (breast cancer); [3]): 62.4% of control; POC (percent of control) SkBr3 (SkBr3 (breast cancer); [4]): 66% of control; activity at 100 µM (T47D (breast cancer)): 33.9%; POC (percent of control) T47D (T47D (breast cancer); [3]): 103.1% of control; POC (percent of control) T47D (T47D (breast cancer); [4]): 103.8% of control |
